Our source for the Ki and IC50 values is patent US9428504B2, “7-hydroxy-spiropipiperidine indolinyl antagonists of P2Y1 receptor” (BRISTOL-MYERS SQUIBB COMPANY, priority 2012, dated 2016).

Molecules are shown by their SMILES. Counter-ions that a name gives are not always drawn.

The target of assay [1] is cloned human P2Y1 receptors (Homo sapiens (Human), UniProt P47900). Description: Binding Assay B: Scintillation Proximity Assay (SPA) for P2Y1 binding. To be noted: SPA, [33P] 2MeS-ADP displacement; read-out: P2Y1 Ki (nM) using binding assay B. The procedure:
A SPA membrane binding assay was used to identify inhibitors of [^33P] […] Binding reactions were performed in 384-well OptiPlates (PerkinElmer Life Sciences, Cat #6007299) in a volume of 50 μL containing ˜15 fmol of P2Y1 receptor (1.7 μg of total protein), 0.3 nM [^33P] […] Reactions were allowed to proceed to completion at room temperature for 1 hour followed by centrifugation of the plate for 5 min. About 40 μL of the aqueous solution was aspirated. Plates were sealed and the [^33P]

For assay [2], the system named is human platelet rich plasma (PRP). Nature of the assay: ADP induced platelet aggregation assay. To be noted: Homo sapiens, Platelet, read-out: PA IC50 (μM) @ 10 μM ADP, platelet aggregation induced by 10 μM ADP, human PRP.

Sequence of cloned human P2Y1 receptors (P47900 whole entry): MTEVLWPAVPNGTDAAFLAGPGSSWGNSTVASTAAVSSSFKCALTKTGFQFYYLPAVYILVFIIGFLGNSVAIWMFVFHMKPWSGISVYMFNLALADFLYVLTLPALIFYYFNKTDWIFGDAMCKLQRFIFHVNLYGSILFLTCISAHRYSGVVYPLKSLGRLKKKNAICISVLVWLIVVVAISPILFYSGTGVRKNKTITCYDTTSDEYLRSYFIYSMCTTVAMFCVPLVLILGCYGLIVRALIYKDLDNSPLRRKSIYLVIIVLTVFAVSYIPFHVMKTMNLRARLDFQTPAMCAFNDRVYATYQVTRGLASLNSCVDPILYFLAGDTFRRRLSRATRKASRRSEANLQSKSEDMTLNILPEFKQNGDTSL

As to `CC(C)c1nc(NC(=O)Nc2ccccc2N2CC3(CCN(CC(C)(C)C)CC3)c3c(C(F)(F)F)ccc(O)c32)cs1` [Example 28, 1-(2-(7-Hydroxy-1′-neopentyl-4-(trifluoromethyl)spiro[indoline-3,4′-piperidine]-1-yl)phenyl)-3-(2-isopropylthiazol-4-yl)urea], the inhibition constant Ki (usually the dissociation constant of the complex between target and ligand, obtained from inhibition or displacement) in assay [1] was 6.6 nM. Further, in assay [2], the IC50 (commonly the concentration needed to halve the response being measured) was found to be 0.8 µM.

Turning to `CC(C)(C)CN1CCC2(CC1)CN(c1ccccc1NC(=O)Nc1nccs1)c1c(O)ccc(C(F)(F)F)c12` [Example 29, 1-(2-(7-Hydroxy-1′-neopentyl-4-(trifluoromethyl)spiro[indoline-3,4′-piperidine]-1-yl)phenyl)-3-(thiazol-2-yl)urea], in assay [1], the Ki came out at 6.4 nM. Besides, the IC50 in assay [2] was 0.4 µM.

On to `CC(C)CN1CCC2(CC1)CN(c1ccccc1NC(=O)Nc1nc3ccc(Cl)cc3s1)c1c(O)ccc(C(F)(F)F)c12` [Example 30, 1-(6-Chlorobenzo[d]thiazol-2-yl)-3-(2-(7-hydroxy-1′-isobutyl-4-(trifluoromethyl)spiro[indoline-3,4′-piperidine]-1-yl)phenyl)urea], for which the Ki in assay [1] came to 14.5 nM. For the same compound, the half-maximal inhibitory concentration (IC50) in assay [2] was determined as 0.1 µM.

For `CC(C)CN1CCC2(CC1)CN(c1ccccc1NC(=O)Nc1nc3ccc(F)cc3s1)c1c(O)ccc(C(F)(F)F)c12` [Example 31, 1-(6-Fluorobenzo[d]thiazol-2-yl)-3-(2-(7-hydroxy-1′-isobutyl-4-(trifluoromethyl)spiro[indoline-3,4′-piperidine]-1-yl)phenyl)urea], the Ki in assay [1] turned out to be 16.4 nM. In assay [2], the IC50 worked out at 0.1 µM.

Turning to `CC(C)(C)CN1CCC2(CC1)CN(c1ccccc1NC(=O)Nc1nc3ccc(F)cc3s1)c1c(O)ccc(F)c12` [Example 32, 1-(2-(4-Fluoro-7-hydroxy-1′-neopentylspiro[indoline-3,4′-piperidine]-1-yl)phenyl)-3-(6-fluorobenzo[d]thiazol-2-yl)urea], the inhibition constant (Ki) in assay [1] was 7.4 nM. Besides, in assay [2], the 50% inhibitory concentration (IC50) was determined as 0.3 µM.

`COc1ccc2nc(NC(=O)Nc3ccccc3N3CC4(CCN(CC(C)(C)C)CC4)c4c(F)ccc(O)c43)sc2c1` [Example 36, 1-(2-(4-Fluoro-7-hydroxy-1′-neopentylspiro[indoline-3,4′-piperidine]-1-yl)phenyl)-3-(6-methoxybenzo[d]thiazol-2-yl)urea]: the Ki in assay [1] is 7.9 nM. In addition, in assay [2], the IC50 amounted to 0.9 µM.

Consider `CC(C)(C)CN1CCC2(CC1)CN(c1ccccc1NC(=O)Nc1ccc(C(F)(F)F)cc1)c1c(O)ccc(F)c12` [Example 37, 1-(2-(4-Fluoro-7-hydroxy-1′-neopentylspiro[indoline-3,4′-piperidine]-1-yl)phenyl)-3-(4-(trifluoromethyl)phenyl)urea], for which the inhibition constant (Ki) in assay [1] worked out at 7.2 nM. Further, the IC50 in assay [2] was found to be 1 µM.

As for `CC(C)(C)CN1CCC2(CC1)CN(c1ccccc1NC(=O)Nc1nc3ccc(Cl)cc3s1)c1c(O)ccc(Cl)c12` [Example 38, 1-(2-(4-Chloro-7-hydroxy-1′-neopentylspiro[indoline-3,4′-piperidine]-1-yl)phenyl)-3-(6-chlorobenzo[d]thiazol-2-yl)urea], the Ki in assay [1] is 10 nM. The IC50 in assay [2] amounted to 0.4 µM.

With `CC(C)(C)CN1CCC2(CC1)CN(c1ccccc1NC(=O)Nc1nc3ccc(F)cc3s1)c1c(O)ccc(Cl)c12` [Example 39, 1-(2-(4-Chloro-7-hydroxy-1′-neopentylspiro[indoline-3,4′-piperidine]-1-yl)phenyl)-3-(6-fluorobenzo[d]thiazol-2-yl)urea], the Ki in assay [1] came to 3.8 nM. Besides, the IC50 in assay [2] amounted to 0.2 µM.

Turning to `Cc1ccc2nc(NC(=O)Nc3ccccc3N3CC4(CCN(CC(C)(C)C)CC4)c4c(Cl)ccc(O)c43)sc2c1` [Example 40, 1-(2-(4-Chloro-7-hydroxy-1′-neopentylspiro[indoline-3,4′-piperidine]-1-yl)phenyl)-3-(6-methylbenzo[d]thiazol-2-yl)urea], the inhibition constant Ki in assay [1] was determined as 5.6 nM. Further, in assay [2], the IC50 came out at 0.5 µM.

Take `COC(=O)c1ccc2nc(NC(=O)Nc3ccccc3N3CC4(CCN(CC(C)(C)C)CC4)c4c(Cl)ccc(O)c43)sc2c1` [Example 41, Methyl 2-(3-(2-(4-Chloro-7-hydroxy-1′-neopentylspiro[indoline-3,4′-piperidine]-1-yl)phenyl)ureido)benzo [d]thiazole-6-carboxylate]: the Ki in assay [1] stood at 7.2 nM. For the same compound, in assay [2], the half-inhibitory concentration (IC50) worked out at 0.7 µM.

`CCSc1nsc(NC(=O)Nc2ccccc2N2CC3(CCN(CC(C)(C)C)CC3)c3c(Cl)ccc(O)c32)n1` [Example 44, 1-(2-(4-Chloro-7-hydroxy-1′-neopentylspiro[indoline-3,4′-piperidine]-1-yl)phenyl)-3-(3-(ethylthio)-1,2,4-thiadiazol-5-yl)urea]: the inhibition constant (Ki) in assay [1] amounted to 7.3 nM. Besides, the half-inhibitory concentration (IC50) in assay [2] is 0.1 µM.

As to `CC(C)(C)CN1CCC2(CC1)CN(c1ccccc1NC(=O)Nc1nc3c(s1)CCCC3)c1c(O)ccc(Cl)c12` [Example 45, 1-(2-(4-Chloro-7-hydroxy-1′-neopentylspiro[indoline-3,4′-piperidine]-1-yl)phenyl)-3-(4,5,6,7-tetrahydrobenzo[d]thiazol-2-yl)urea, TFA], the Ki in assay [1] worked out at 9.5 nM. Moreover, the IC50 in assay [2] came to 0.3 µM.

For the compound `CC(C)(C)CN1CCC2(CC1)CN(c1ccccc1NC(=O)Nc1nc3c(s1)CCC3)c1c(O)ccc(Cl)c12` [Example 46, 1-(2-(4-Chloro-7-hydroxy-1′-neopentylspiro[indoline-3,4′-piperidine]-1-yl)phenyl)-3-(5,6-dihydro-4H-cyclopenta[d]thiazol-2-yl)urea, TFA], the Ki in assay [1] was found to be 6.2 nM. Besides, the 50% inhibitory concentration (IC50) in assay [2] came to 0.3 µM.

As for `COc1ccc2nc(NC(=O)Nc3ccccc3N3CC4(CCN(CC(C)(C)C)CC4)c4c(Cl)ccc(O)c43)sc2c1` [Example 47, 1-(2-(4-Chloro-7-hydroxy-1′-neopentylspiro[indoline-3,4′-piperidine]-1-yl)phenyl)-3-(6-methoxybenzo[d]thiazol-2-yl)urea, TFA], the Ki in assay [1] worked out at 9.4 nM. The IC50 in assay [2] came out at 0.3 µM.

In the case of `CC(C)(C)CN1CCC2(CC1)CN(c1ccccc1NC(=O)Nc1nc3c(s1)COCC3)c1c(O)ccc(Cl)c12` [Example 48, 1-(2-(4-Chloro-7-hydroxy-1′-neopentylspiro[indoline-3,4′-piperidine]-1-yl)phenyl)-3-(6,7-dihydro-4H-pyrano[4,3-d]thiazol-2-yl)urea, TFA], the inhibition constant (Ki) in assay [1] came out at 8 nM. The half-maximal inhibitory concentration (IC50) in assay [2] was determined as 0.4 µM.

With `CC(C)(C)CN1CCC2(CC1)CN(c1ccccc1NC(=O)Nc1nc3c(s1)CSCC3)c1c(O)ccc(Cl)c12` [Example 49, 1-(2-(4-Chloro-7-hydroxy-1′-neopentylspiro[indoline-3,4′-piperidine]-1-yl)phenyl)-3-(6,7-dihydro-4H-thiopyrano[4,3-d]thiazol-2-yl)urea, TFA], the inhibition constant (Ki) in assay [1] amounted to 6.5 nM. The IC50 in assay [2] is 0.3 µM.

On to `COc1nsc(NC(=O)Nc2ccccc2N2CC3(CCN(CC(C)(C)C)CC3)c3c(Cl)ccc(O)c32)n1` [Example 50, 1-(2-(4-Chloro-7-hydroxy-1′-neopentylspiro[indoline-3,4′-piperidine]-1-yl)phenyl)-3-(3-methoxy-1,2,4-thiadiazol-5-yl)urea, TFA], for which the Ki in assay [1] worked out at 6.8 nM. Also, the IC50 in assay [2] turned out to be 0.3 µM.

On to `CC(C)(C)CN1CCC2(CC1)CN(c1ccccc1NC(=O)Nc1nc3ccc([N+](=O)[O-])cc3s1)c1c(O)ccc(Cl)c12` [Example 51, 1-(2-(4-Chloro-7-hydroxy-1′-neopentylspiro[indoline-3,4′-piperidine]-1-yl)phenyl)-3-(6-nitrobenzo[d]thiazol-2-yl)urea, TFA], for which the inhibition constant (Ki) in assay [1] stood at 10.8 nM. In assay [2], the half-maximal inhibitory concentration (IC50) was determined as 0.5 µM.

For `CC(C)(C)CN1CCC2(CC1)CN(c1ccccc1NC(=O)Nc1nc3ccc(OC(F)(F)F)cc3s1)c1c(O)ccc(Cl)c12` [Example 52, 1-(2-(4-Chloro-7-hydroxy-1′-neopentylspiro[indoline-3,4′-piperidine]-1-yl)phenyl)-3-(6-(trifluoromethoxy)benzo[d]thiazol-2-yl)urea, TFA], the Ki in assay [1] came out at 9.2 nM. Further, in assay [2], the IC50 stood at 0.3 µM.

On to `CC(C)(C)CN1CCC2(CC1)CN(c1ccccc1NC(=O)Nc1nc3ccccc3s1)c1c(O)ccc(Cl)c12` [Example 53, 1-(Benzo[d]thiazol-2-yl)-3-(2-(4-chloro-7-hydroxy-1′-neopentylspiro[indoline-3,4′-piperidine]-1-yl)phenyl)urea, TFA], for which the Ki in assay [1] came to 7.5 nM. Also, in assay [2], the IC50 stood at 0.5 µM.

With `CC(C)(C)CN1CCC2(CC1)CN(c1ccccc1NC(=O)Nc1ccc(F)cc1F)c1c(O)ccc(Cl)c12` [Example 54, 1-(2-(4-Chloro-7-hydroxy-1′-neopentylspiro[indoline-3,4′-piperidine]-1-yl)phenyl)-3-(2,4-difluorophenyl)urea], the inhibitory constant (Ki) in assay [1] was determined as 9.6 nM. Besides, the IC50 in assay [2] was 1.1 µM.

With `CC(C)(C)CN1CCC2(CC1)CN(c1ccccc1NC(=O)Nc1ccc(C(C)(C)C)cc1)c1c(O)ccc(Cl)c12` [Example 55, 1-(4-tert-Butylphenyl)-3-(2-(4-chloro-7-hydroxy-1′-neopentylspiro[indoline-3,4′-piperidine]-1-yl)phenyl)urea], the inhibition constant (Ki) in assay [1] was determined as 9.7 nM. In addition, in assay [2], the 50% inhibitory concentration (IC50) amounted to 1 µM.

Consider `Cc1ccc(NC(=O)Nc2ccccc2N2CC3(CCN(CC(C)(C)C)CC3)c3c(Cl)ccc(O)c32)cc1F` [Example 56, 1-(2-(4-Chloro-7-hydroxy-1′-neopentylspiro[indoline-3,4′-piperidine]-1-yl)phenyl)-3-(3-fluoro-4-methylphenyl)urea], for which, in assay [1], the Ki stood at 6.4 nM. Further, the half-maximal inhibitory concentration (IC50) in assay [2] came out at 0.5 µM.
